ChEMBL document CHEMBL5346877, “A-ring-fused pyrazoles of dihydrotestosterone targeting prostate cancer cells via the downregulation of the androgen receptor” (Eur J Med Chem, 2023)
Activity calls are given as the source filed them. No cut-off for these calls is given here.

Columns and labels:
[1] = tested on: LAPC4; experiment: Inhibition of colony formation in human LAPC4 cells at 10 uM incubated for 10 days by crystal violet staining based assay; format: functional; details: LAPC4, 240 h, time 10 day
[2] = tested on: LAPC4; experiment: Cytotoxicity against human LAPC4 cells assessed as cell viability at 20 uM incubated for 72 hrs by resazurin dye based microplate reader assay; format: functional; details: read-out: Activity
[3] = tested on: CWR22R; experiment: Cytotoxicity against human 22Rv1 cells assessed as cell viability at 20 uM incubated for 72 hrs by resazurin dye based microplate reader assay; format: functional; details: read-out: Activity
[4] = tested on: DU-145; experiment: Cytotoxicity against human DU-145 cells assessed as cell viability at 20 uM incubated for 72 hrs by resazurin dye based microplate reader assay; format: functional; details: read-out: Activity
[5] = tested on: LAPC4; experiment: Inhibition of colony formation in human LAPC4 cells at 5 uM incubated for 10 days by crystal violet staining based assay; format: functional, cell-based; details: time 10.0 day
[6] = Downregulation of AR protein expression in human LAPC4 cells assessed as AR levels at 10 uM incubated for 24 hrs by immunoblotting analysis; format: functional

## Cc1c2c(nn1-c1ccc(F)cc1)C[C@@H]1CC[C@@H]3[C@H](CC[C@]4(C)C(=O)CC[C@@H]34)[C@@]1(C)C2
[1]
  inhibition at 10 µM: 15%
[2]
  viability at 20 µM: 42%
[3]
  viability at 20 µM: 75%
[4]
  viability at 20 µM: ≥ 100%
[5]
  inhibition: Active

## Cc1ccc(-c2c3c(nn2C)C[C@@H]2CC[C@@H]4[C@H](CC[C@]5(C)C(=O)CC[C@@H]45)[C@@]2(C)C3)cc1
[6]
  Activity: 92%
[1]
  inhibition at 10 µM: 23%
[2]
  viability at 20 µM: 34%
[3]
  viability at 20 µM: 73%
[4]
  viability at 20 µM: ≥ 100%
[5]
  inhibition: Active

## Cc1c2c(nn1-c1ccc(Cl)cc1)C[C@@H]1CC[C@@H]3[C@H](CC[C@]4(C)[C@@H](O)CC[C@@H]34)[C@@]1(C)C2
[1]
  inhibition at 10 µM: 4%
[2]
  viability at 20 µM: 47%
[3]
  viability at 20 µM: 52%
[4]
  viability at 20 µM: 107%
[5]
  inhibition: Active

## Cn1nc2c(c1-c1ccc(Cl)cc1)C[C@@]1(C)[C@@H](CC[C@@H]3[C@@H]1CC[C@]1(C)[C@@H](O)CC[C@@H]31)C2
[6]
  Activity: 91%
[1]
  inhibition at 10 µM: 26%
[2]
  viability at 20 µM: 41%
[3]
  viability at 20 µM: 29%
[4]
  viability at 20 µM: 90%
[5]
  inhibition: Active

## Cn1nc2c(c1-c1cccs1)C[C@@]1(C)[C@@H](CC[C@@H]3[C@@H]1CC[C@]1(C)C(=O)CC[C@@H]31)C2
[6]
  Activity: 92%
[1]
  inhibition at 10 µM: 4%
[2]
  viability at 20 µM: 31%
[3]
  viability at 20 µM: 68%
[4]
  viability at 20 µM: 100%
[5]
  inhibition: Active

## Cn1nc2c(c1-c1ccccc1)C[C@@]1(C)[C@@H](CC[C@@H]3[C@@H]1CC[C@]1(C)C(=O)CC[C@@H]31)C2
[6]
  Activity: 65%
[1]
  inhibition at 10 µM: 21%
[2]
  viability at 20 µM: 36%
[3]
  viability at 20 µM: 68%
[4]
  viability at 20 µM: ≥ 100%
[5]
  inhibition: Active

## Cn1nc2c(c1-c1ccc(F)cc1)C[C@@]1(C)[C@@H](CC[C@@H]3[C@@H]1CC[C@]1(C)[C@@H](O)CC[C@@H]31)C2
[6]
  Activity: 83%
[1]
  inhibition at 10 µM: 16%
[2]
  viability at 20 µM: 44%
[3]
  viability at 20 µM: 26%
[4]
  viability at 20 µM: 89%
[5]
  inhibition: Active

## C[C@]12Cc3cnn(-c4ccc(F)cc4)c3C[C@@H]1CC[C@@H]1[C@@H]2CC[C@]2(C)[C@@H](O)CC[C@@H]12
[6]
  Activity: >=100%
[1]
  inhibition at 10 µM: 1%
[2]
  viability at 20 µM: 44%
[3]
  viability at 20 µM: 57%
[4]
  viability at 20 µM: 55%

## C[C@]12CC[C@H](O)CC1=CC[C@@H]1[C@@H]2CC[C@]2(C)C(c3cccnc3)=CC[C@@H]12 [ABIRATERONE]
[6]
  Activity: 88%
[1]
  inhibition at 10 µM: 70%
[2]
  viability at 20 µM: 100%
[3]
  viability at 20 µM: ≥ 100%
[4]
  viability at 20 µM: ≥ 100%

## Cn1nc2c(c1-c1ccc(Cl)cc1)C[C@@]1(C)[C@@H](CC[C@@H]3[C@@H]1CC[C@]1(C)C(=O)CC[C@@H]31)C2
[6]
  Activity: 67%
[1]
  inhibition at 10 µM: 11%
[2]
  viability at 20 µM: 21%
[3]
  viability at 20 µM: 61%
[4]
  viability at 20 µM: 98%
[5]
  inhibition: Active

## Cn1nc2c(c1-c1ccccc1)C[C@@]1(C)[C@@H](CC[C@@H]3[C@@H]1CC[C@]1(C)[C@@H](O)CC[C@@H]31)C2
[6]
  Activity: 93%
[1]
  inhibition at 10 µM: 2%
[2]
  viability at 20 µM: 51%
[3]
  viability at 20 µM: 48%
[4]
  viability at 20 µM: 100%
[5]
  inhibition: Active

## Cc1c2c(nn1-c1ccccc1)C[C@@H]1CC[C@@H]3[C@H](CC[C@]4(C)C(=O)CC[C@@H]34)[C@@]1(C)C2
[1]
  inhibition at 10 µM: 54%
[2]
  viability at 20 µM: 87%
[3]
  viability at 20 µM: 90%
[4]
  viability at 20 µM: 100%
[5]
  inhibition: Active

## COc1ccc(-c2c3c(nn2C)C[C@@H]2CC[C@@H]4[C@H](CC[C@]5(C)C(=O)CC[C@@H]45)[C@@]2(C)C3)cc1
[6]
  Activity: >=100%
[1]
  inhibition at 10 µM: 34%
[2]
  viability at 20 µM: 35%
[3]
  viability at 20 µM: 58%
[4]
  viability at 20 µM: 97%
[5]
  inhibition: Active

## CNC(=O)c1ccc(N2C(=S)N(c3ccc(C#N)c(C(F)(F)F)c3)C(=O)C2(C)C)cc1F [ENZALUTAMIDE]
[6]
  Activity: 85%
[1]
  inhibition at 10 µM: 44%
[2]
  viability at 20 µM: 81%
[3]
  viability at 20 µM: ≥ 100%
[4]
  viability at 20 µM: 96%

## C[C@]12Cc3cnn(-c4ccc(C#N)cc4)c3C[C@@H]1CC[C@@H]1[C@@H]2CC[C@]2(C)[C@@H](O)CC[C@@H]12
[6]
  Activity: >=100%
[1]
  inhibition at 10 µM: 12%
[2]
  viability at 20 µM: 65%
[3]
  viability at 20 µM: 65%
[4]
  viability at 20 µM: 88%

## Cc1c2c(nn1-c1ccc([N+](=O)[O-])cc1)C[C@@H]1CC[C@@H]3[C@H](CC[C@]4(C)C(=O)CC[C@@H]34)[C@@]1(C)C2
[1]
  inhibition at 10 µM: 26%
[2]
  viability at 20 µM: 48%
[3]
  viability at 20 µM: 57%
[4]
  viability at 20 µM: ≥ 100%
[5]
  inhibition: Active

## Cc1c2c(nn1-c1ccc([N+](=O)[O-])cc1)C[C@@H]1CC[C@@H]3[C@H](CC[C@]4(C)[C@@H](O)CC[C@@H]34)[C@@]1(C)C2
[1]
  inhibition at 10 µM: 11%
[2]
  viability at 20 µM: 74%
[3]
  viability at 20 µM: 58%
[4]
  viability at 20 µM: 85%
[5]
  inhibition: Active

## Cc1ccc(-n2nc3c(c2C)C[C@@]2(C)[C@@H](CC[C@@H]4[C@@H]2CC[C@]2(C)[C@@H](O)CC[C@@H]42)C3)cc1
[1]
  inhibition at 10 µM: 2%
[2]
  viability at 20 µM: 88%
[3]
  viability at 20 µM: 37%
[4]
  viability at 20 µM: 93%
[5]
  inhibition: Active

## Cc1c2c(nn1-c1ccc(Br)cc1)C[C@@H]1CC[C@@H]3[C@H](CC[C@]4(C)C(=O)CC[C@@H]34)[C@@]1(C)C2
[5]
  inhibition: Active

## N#Cc1ccc(O[C@H]2CC[C@H](NC(=O)c3ccc(N4CCC(CN5CCN(c6cc7c(cc6F)C(=O)N(C6CCC(=O)NC6=O)C7=O)CC5)CC4)nn3)CC2)cc1Cl (stereo not given in full) [BAVDEGALUTAMIDE]
[6]
  Activity: 14%
[1]
  inhibition at 10 µM: 7%
[2]
  viability at 20 µM: 5%
[3]
  viability at 20 µM: 96%
[4]
  viability at 20 µM: 85%

## Cn1nc2c(c1-c1ccc(Br)cc1)C[C@@]1(C)[C@@H](CC[C@@H]3[C@@H]1CC[C@]1(C)[C@@H](O)CC[C@@H]31)C2
[6]
  Activity: 79%
[1]
  inhibition at 10 µM: 16%
[2]
  viability at 20 µM: 42%
[3]
  viability at 20 µM: 21%
[4]
  viability at 20 µM: 94%
[5]
  inhibition: Active

## Cc1c2c(nn1-c1ccc(C#N)cc1)C[C@@H]1CC[C@@H]3[C@H](CC[C@]4(C)[C@@H](O)CC[C@@H]34)[C@@]1(C)C2
[1]
  inhibition at 10 µM: 6%
[2]
  viability at 20 µM: 73%
[3]
  viability at 20 µM: 43%
[4]
  viability at 20 µM: 50%
[5]
  inhibition: Active

## COc1ccc(-n2nc3c(c2C)C[C@@]2(C)[C@@H](CC[C@@H]4[C@@H]2CC[C@]2(C)C(=O)CC[C@@H]42)C3)cc1
[1]
  inhibition at 10 µM: 20%
[2]
  viability at 20 µM: 57%
[3]
  viability at 20 µM: 77%
[4]
  viability at 20 µM: ≥ 100%
[5]
  inhibition: Active

## C[C@]12Cc3cnn(-c4ccc(Br)cc4)c3C[C@@H]1CC[C@@H]1[C@@H]2CC[C@]2(C)[C@@H](O)CC[C@@H]12
[6]
  Activity: >=100%
[1]
  inhibition at 10 µM: 1%
[2]
  viability at 20 µM: 58%
[3]
  viability at 20 µM: 62%
[4]
  viability at 20 µM: 100%

## Cc1ccc(-n2nc3c(c2C)C[C@@]2(C)[C@@H](CC[C@@H]4[C@@H]2CC[C@]2(C)C(=O)CC[C@@H]42)C3)cc1
[1]
  inhibition at 10 µM: 54%
[2]
  viability at 20 µM: 87%
[3]
  viability at 20 µM: 97%
[4]
  viability at 20 µM: ≥ 100%
[5]
  inhibition: Active

## C[C@]12Cc3cnn(-c4ccc([N+](=O)[O-])cc4)c3C[C@@H]1CC[C@@H]1[C@@H]2CC[C@]2(C)[C@@H](O)CC[C@@H]12
[6]
  Activity: >=100%
[1]
  inhibition at 10 µM: 15%
[2]
  viability at 20 µM: 40%
[3]
  viability at 20 µM: 97%
[4]
  viability at 20 µM: 99%

## COc1ccc(-n2nc3c(c2C)C[C@@]2(C)[C@@H](CC[C@@H]4[C@@H]2CC[C@]2(C)[C@@H](O)CC[C@@H]42)C3)cc1
[1]
  inhibition at 10 µM: 7%
[2]
  viability at 20 µM: 82%
[3]
  viability at 20 µM: 54%
[4]
  viability at 20 µM: 29%
[5]
  inhibition: Active

## C[C@]12CC[C@H](O)CC1=CC[C@@H]1[C@@H]2CC[C@]2(C)C(n3cnc4ccccc43)=CC[C@@H]12 [GALETERONE]
[6]
  Activity: 81%
[1]
  inhibition at 10 µM: 30%
[2]
  viability at 20 µM: ≥ 76%
[3]
  viability at 20 µM: 95%
[4]
  viability at 20 µM: ≥ 100%

## COc1ccc(-n2ncc3c2C[C@@H]2CC[C@@H]4[C@H](CC[C@]5(C)[C@@H](O)CC[C@@H]45)[C@@]2(C)C3)cc1
[6]
  Activity: >=100%
[1]
  inhibition at 10 µM: 0%
[2]
  viability at 20 µM: 43%
[3]
  viability at 20 µM: 75%
[4]
  viability at 20 µM: 97%

## Cc1c2c(nn1-c1ccc(Cl)cc1)C[C@@H]1CC[C@@H]3[C@H](CC[C@]4(C)C(=O)CC[C@@H]34)[C@@]1(C)C2
[1]
  inhibition at 10 µM: 16%
[2]
  viability at 20 µM: 38%
[3]
  viability at 20 µM: 75%
[4]
  viability at 20 µM: ≥ 100%
[5]
  inhibition: Active

## C[C@]12Cc3c(nn(-c4ccccc4)c3-c3ccccc3)C[C@@H]1CC[C@@H]1[C@@H]2CC[C@]2(C)[C@@H](O)CC[C@@H]12
[6]
  Activity: >=100%
[1]
  inhibition at 10 µM: ≥ 100%
[2]
  viability at 20 µM: 72%
[3]
  viability at 20 µM: 47%
[4]
  viability at 20 µM: 12%

## Cc1c2c(nn1-c1ccc(Br)cc1)C[C@@H]1CC[C@@H]3[C@H](CC[C@]4(C)[C@@H](O)CC[C@@H]34)[C@@]1(C)C2
[1]
  inhibition at 10 µM: 5%
[2]
  viability at 20 µM: 52%
[3]
  viability at 20 µM: 50%
[4]
  viability at 20 µM: 89%
[5]
  inhibition: Active
